These results are taken from ChEMBL document CHEMBL5053468, “Aromatic ring compound as ghrelin o-acyltransferase inhibitor” (2017).

The target of the assay is T1, Membrane-bound ghrelin O-acyltransferase MBOAT4 (Homo sapiens) (UniProt Q96T53).
T1 sequence (whole entry): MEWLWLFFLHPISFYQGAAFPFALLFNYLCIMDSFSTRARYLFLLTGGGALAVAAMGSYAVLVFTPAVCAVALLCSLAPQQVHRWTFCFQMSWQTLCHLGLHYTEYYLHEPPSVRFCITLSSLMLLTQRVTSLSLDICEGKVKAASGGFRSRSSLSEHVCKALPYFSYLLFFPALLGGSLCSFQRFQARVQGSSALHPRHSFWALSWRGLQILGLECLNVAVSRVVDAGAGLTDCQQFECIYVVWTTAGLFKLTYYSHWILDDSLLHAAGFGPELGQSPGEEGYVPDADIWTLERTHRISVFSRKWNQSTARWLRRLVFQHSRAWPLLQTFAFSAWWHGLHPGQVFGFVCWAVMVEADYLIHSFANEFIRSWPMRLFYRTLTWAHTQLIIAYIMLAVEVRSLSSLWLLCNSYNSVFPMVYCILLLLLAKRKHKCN
The experiment in a line: Inhibition of human GOAT expressed in baculovirus infected Sf9 cells at 10 uM using octanoyl-CoA and ghrelin-biotin as substrate preincubated for 20 mins followed by substrate addition and measured after = > 1 hr by HTRF assay relative to control. Conditions: time hrs >=1. On the technique in general: TR-FRET usually uses a lanthanide donor and a delayed reading to cut background.
In general, inhibition refers to the change of the read-out against control, counted positive when it falls. As to `COC(=O)Cc1c(C)sc2cc(OCc3cc(C(F)(F)F)nn3C)cc(Cl)c12`, the inhibition is 99.5%. Consider `COC(=O)Cc1csc2c(F)c(OCc3ccc(C(F)(F)F)nc3C)cc(C)c12`, for which the inhibition turned out to be 94%.

`Cc1nc(C(F)(F)F)ccc1COc1cc(F)c2c(CC(=O)O)csc2c1`: the inhibition is 102%. Under `O=C(O)Cc1csc2cc(SCc3ccc(Cl)cc3Cl)ccc12` stands 99.3%. Under `CCOC(=O)CNC(=O)Cc1csc2cc(OCc3ccc(Cl)cc3Cl)ccc12` stands 56%; under `Cn1nc(C(F)(F)F)cc1COc1cc(F)c2c(CC(=O)O)csc2c1`, 104%.

For `O=C(O)Cc1csc2cc(OCc3ccc(Cl)cc3Cl)ccc12`, the inhibition was found to be 99.2%. Turning to `Cc1cc(OCc2ccc(Cl)cc2Cl)c(C)c2c1C(CC(=O)O)CO2` (stereo not given), the inhibition came to 96.2%. With `CCS(=O)(=O)NC(=O)Cc1csc2cc(OCc3ccc(Cl)cc3Cl)ccc12` the figure was 83.2%; with `Cc1nc(C(F)(F)F)ccc1COc1cc(C)c2c(CC(=O)O)csc2c1C`, 105%; with `CCOC(=O)Cc1csc2cc(OCc3ccc(Cl)cc3Cl)ccc12`, 69%. Turning to `Cc1ccc(COc2cc(Cl)c3c(CC(=O)O)csc3c2)c(C)n1`, the inhibition is 107%. Under `Cc1ccc(COc2ccc3c(CC(=O)O)csc3c2)c(C)n1` stands 99%; under `Cc1c(OCc2ccc(Cl)cc2Cl)cc(C)c2c(CC(=O)O)coc12`, 103%.

Take `Cn1nc(C(F)(F)F)cc1COc1cc(C(F)(F)F)c2c(CC(=O)O)csc2c1`: the inhibition was 103%. Under `Cc1nc(C(F)(F)F)ccc1COc1cc(Cl)c2c(CC(=O)O)csc2c1F` stands 106%; under `COC(=O)Cc1csc2cc(OCc3ccc(C)nc3C)cc(Cl)c12`, 96.5%. For `Cc1nc(C(F)(F)F)ccc1COc1cc(Cl)c2c(CC(=O)O)csc2c1Cl`, the inhibition was 106%. For the compound `COC(=O)Cc1csc2cc(OCc3ccc(C(F)(F)F)nc3C)cc(F)c12`, the inhibition was determined as 94.9%. Consider `Cc1nc(C(F)(F)F)ccc1COc1cc(Cl)c2c(CC(=O)O)c(C)sc2c1`, for which the inhibition was found to be 103%. For `CC(=O)NCCc1coc2cc(OCc3ccc(Cl)cc3Cl)ccc12`, the inhibition was 73%.

With `COC(=O)Cc1csc2cc(OCc3cc(C)nn3C)cc(C)c12`, the inhibition was determined as 94.7%. On to `Cc1nc(C(F)(F)F)ncc1COc1ccc2c(CC(=O)O)csc2c1`, for which the inhibition was 97.3%.

Regarding `COC(=O)Cc1coc2c(C)c(OCc3ccc(C)nc3C)cc(C)c12`, the inhibition was determined as 92.7%. Consider `O=C(O)Cc1coc2c(Cl)c(OCc3ccc(Cl)cc3Cl)ccc12`, for which the inhibition was determined as 100%. As for `Cn1nc(C(F)(F)F)cc1COc1ccc2c(CC(=O)O)csc2c1`, the inhibition was determined as 98.2%. Under `CCOC(=O)Cc1csc2cc(OCc3ccc(C)nc3C)ccc12` stands 92.8%. As to `Cc1nc(C(F)(F)F)ccc1COc1cc(C)c2c(CC(=O)O)csc2c1`, the inhibition amounted to 99.2%. In the case of `Cc1nc(C(F)(F)F)ccc1COc1cc(Cl)c2c(CC(=O)O)csc2c1`, the inhibition worked out at 101%. For `COC(=O)Cc1csc2cc(OCc3ccc(C(F)(F)F)nc3C)cc(Cl)c12`, the inhibition came out at 91.6%. In the case of `Cc1cc(COc2cc(C)c3c(CC(=O)O)csc3c2)n(C)n1`, the inhibition was 95.6%. `Cc1cc(COc2cc(Cl)c3c(CC(=O)O)csc3c2)n(C)n1`: the inhibition was found to be 105%. Under `Cc1ccc(COc2cc(C)c3c(CC(=O)O)coc3c2C)c(C)n1` stands 102%; under `O=C(Cc1csc2cc(OCc3ccc(Cl)cc3Cl)ccc12)NC(CO)C(=O)O` (stereo not given), 97%; under `O=C(O)C[C@H]1COc2cc(OCc3ccc(Cl)cc3Cl)ccc21`, 86%.

Regarding `Cc1ccc(COc2cc(C(F)(F)F)c3c(CC(=O)O)csc3c2)c(C)n1`, the inhibition worked out at 103%. Under `Cc1cc(OCc2cc(C(F)(F)F)nn2C)c(F)c2scc(CC(=O)O)c12` stands 104%. Under `COC(=O)Cc1csc2c(C)c(OCc3ccc(C(F)(F)F)nc3C)cc(C)c12` stands 62.8%; under `Cn1nc(C(F)(F)F)cc1COc1cc(Cl)c2c(CC(=O)O)csc2c1`, 105%; under `COC(=O)Cc1csc2c(F)c(OCc3cc(C(F)(F)F)nn3C)cc(C)c12`, 96.1%. For `COC(=O)Cc1csc2c(F)c(OCc3ccc(C(F)(F)F)nc3C)cc(Cl)c12`, the inhibition stood at 88.6%. For `CC(=O)NCC[C@@H]1COc2cc(OCc3ccc(Cl)cc3Cl)ccc21`, the inhibition is 69%.

On to `COC(=O)Cc1csc2cc(OCc3cc(C)nn3C)cc(Cl)c12`, for which the inhibition amounted to 97.4%. For the compound `CCC(=O)NCC[C@@H]1COc2cc(OCc3ccc(Cl)cc3Cl)ccc21`, the inhibition is 59%.

As for `COC(=O)Cc1csc2cc(OCc3ccc(C(F)(F)F)nc3C)cc(C)c12`, the inhibition turned out to be 93.8%. For `O=C(O)CC1CSc2cc(OCc3ccc(Cl)cc3Cl)ccc21` (stereo not given), the inhibition amounted to 99%. For the compound `COCC1(C(=O)O)COc2cc(OCc3ccc(Cl)cc3Cl)ccc21` (stereo not given), the inhibition is 85%.

As for `COC(=O)Cc1coc2c(C)c(OCc3ccc(Cl)cc3Cl)cc(C)c12`, the inhibition came to 68.7%. With `CCOC(=O)Cc1csc2cc(OCc3cc(C(F)(F)F)nn3C)ccc12`, the inhibition amounted to 88.9%. With `O=C(O)C[C@@H]1COc2cc(OCc3ccc(Cl)cc3Cl)ccc21`, the inhibition is 93%. Under `Cn1nc(C(F)(F)F)cc1COc1cc(Cl)c2c(CC(=O)O)csc2c1Cl` stands 105%; under `Cc1nc(C(F)(F)F)ncc1COc1cc(C)c2c(CC(=O)O)csc2c1`, 100%; under `O=C(O)C1(CO)COc2cc(OCc3ccc(Cl)cc3Cl)ccc21` (stereo not given), 81%. Regarding `COC(=O)Cc1csc2c(Cl)c(OCc3cc(C(F)(F)F)nn3C)cc(Cl)c12`, the inhibition was 92.7%. With `COC(=O)Cc1csc2cc(OCc3ccc(Cl)cc3Cl)cc(C)c12` the figure was 84.4%.

As for `Cc1nc(C(F)(F)F)ccc1COc1cc(C)c2c(CC(=O)O)csc2c1F`, the inhibition amounted to 106%.

Consider `Cn1nc(C(F)(F)F)cc1COc1cc(Cl)c2c(CC(=O)O)csc2c1F`, for which the inhibition is 107%.

Regarding `O=C(O)CC1CS(=O)(=O)c2cc(OCc3ccc(Cl)cc3Cl)ccc21` (stereo not given), the inhibition is 79%. As to `Cc1sc2cc(OCc3cc(C(F)(F)F)nn3C)cc(Cl)c2c1CC(=O)O`, the inhibition is 106%.

With `COC(=O)Cc1c(C)sc2cc(OCc3ccc(C(F)(F)F)nc3C)cc(Cl)c12`, the inhibition stood at 51.5%.

As to `Cc1ccc(/C=C/c2ccc3c(CC(=O)O)csc3c2)c(C)n1`, the inhibition was 83.1%. In the case of `Cc1nc(C(F)(F)F)ccc1COc1ccc2c(CC(=O)O)csc2c1`, the inhibition stood at 93.1%. `Cc1cc(OCc2cc(C(F)(F)F)nn2C)cc2scc(CC(=O)O)c12`: the inhibition is 104%. In the case of `O=C(O)Cc1csc2cc([S+]([O-])Cc3ccc(Cl)cc3Cl)ccc12` (stereo not given), the inhibition was found to be 67%. As for `COC(=O)Cc1csc2c(F)c(OCc3cc(C(F)(F)F)nn3C)cc(Cl)c12`, the inhibition stood at 98.9%.

Take `COC(=O)Cc1csc2cc(OCc3cc(C(F)(F)F)nn3C)cc(F)c12`: the inhibition stood at 99.9%. With `COC(=O)Cc1csc2cc(OCc3cc(C(F)(F)F)nn3C)cc(C)c12` the figure was 95.2%; with `O=C(O)CNC(=O)Cc1csc2cc(OCc3ccc(Cl)cc3Cl)ccc12`, 95%; with `Cc1ccc(CCc2ccc3c(CC(=O)O)csc3c2)c(C)n1`, 97.3%.

As to `Cc1cc(OCc2ccc(Cl)cc2Cl)cc2scc(CC(=O)O)c12`, the inhibition came to 103%. Under `COC(=O)C(CO)NC(=O)Cc1csc2cc(OCc3ccc(Cl)cc3Cl)ccc12` (stereo not given) stands 86%; under `Cc1ccc(COc2cc(C)c3c(c2C)OCC3CC(=O)O)c(C)n1` (stereo not given), 94.8%. In the case of `COC(=O)Cc1csc2cc(OCc3cc(C(F)(F)F)nn3C)cc(Cl)c12`, the inhibition worked out at 100%. As for `COC(=O)Cc1csc2c(Cl)c(OCc3ccc(C(F)(F)F)nc3C)cc(Cl)c12`, the inhibition worked out at 88.1%. In the case of `O=C(O)Cc1csc2cc(S(=O)(=O)Cc3ccc(Cl)cc3Cl)ccc12`, the inhibition stood at 83%.
